“And” between values parts separate entries of the source, which are not always exact repeats. Identical values can stand only once. Counter-ions that a name gives are not always drawn.
How the values were obtained:
murine B16 melanoma = experiment: Murine B16 melanoma model in vivo; parameters: species or system mouse (B6D2F1); conditions: for Survivors: 60-day
Procedure: 1) Murine B16 Melanoma Model
(§1) For the B16 melanoma model, the following procedure was used. B6D2F1 mice receive i.p. inocula of B16 murine melanoma brei prepared from B16 tumors growing s.c. in mice (day 0). […] If dosing information for agents is not available, the maximum tolerated dose (MTD) is determined in initial dose finding experiments in non-tumored mice.
(§2) The mean survival times of all groups are calculated, and results are expressed as mean survival of treated mice/mean survival of control mice (T/C)×100%. A T/C value of 150 means that the mice in the treated group lived 50% longer than those of the control group; this is sometimes referred to as the increase in life span or ILS value.
Mice that survive for 60 days are considered long-term survivors, or cures, in the B16 model. The universally accepted cut-off for activity in this model, which has been for years by the National Cancer Institute, is T/C=125. Conventional use of B16 over the years has set the following levels of activity: T/C<125, no activity, T/C=125-150, weak activity; T/C=150-200, modest activity; T/C=200-300, high activity; T/C>300, with long term survivors; excellent, curative activity.

murine P388 leukemia = experiment: Murine P388 leukemia model in vivo; parameters: species or system mouse (B6D2F1)
Procedure: as §1, §2
For the P388 leukemia model, the procedure followed is exactly the same as the aforementioned B16 model. The tumor inoculum is prepared by removing ascited fluid containing P388 cells from tumored B6D2F1 mice, centrifuging the cells, and then resuspending the leukemia cells in saline. Mice receive 1×10^6 P388 cells i.p. on day 0.

[1] = test system: MX-1 human breast tumor xenograft; experiment: in vivo
From the text: For all the models, the vehicle used to deliver the analog of interest was isotonic saline.
For the MX-1 human breast tumor xenograft models, the following procedure was used. Nude mice are implanted s.c. by trocar with fragments of MX-1 mammary carcinomas harvested from s.c. growing MX-1 tumors in nude mice hosts. When tumors are approximately 5 mm×5 mm in size (usually about ten days after inoculation), the animals are pair-matched into treatment and control groups. Each group contains ten tumored mice, each of which is ear-tagged and followed individually throughout the experiment. The administration of drugs or vehicle begins the day the animals are pair-matched (day 1). The doses, route of drug administration and schedule are selected as appropriate for the study in question. If the MTD dose of an agent is not known, it is determined in an initial dosing experiment in non-tumored mice. In a typical experiment, drugs are given at their MTD and 1/2 MTD doses i.p. on a daily×5 schedule.
The experiment is usually terminated when control tumors reach a size of 2-3 g. Mice are weighed twice weekly, and tumor measurements are taken by calipers twice weekly, starting on day 1. These tumor measurements are converted to mg tumor weight by a well known formula, and from these calculated tumor weights the termination date can be determined. Upon termination, all mice are weighed, sacrificed, and their tumors excised. Tumors are weighed, and the mean tumor weight per group is calculated.
Some drugs cause tumor shrinkage in the MX-1 model. With these agents, the final weight of a given tumor is subtracted from its own weight at the start of the treatment on day 1. This difference divided by the initial tumor weight is the % shrinkage. A mean % tumor shrinkage can be calculated from data from the mice in a group that experienced MX-1 regressions. If the tumor completely disappears in a mouse, this is considered a complete regression or complete tumor shrinkage. If desired, mice with partial or total tumor regressions can be kept alive past the termination date to see whether they live to become long term, tumor-free survivors.
Note that in the following table the abbreviation SR refers to tumor shrinkage rate, while those entries followed by a superscripted `2` are tumor growth inhibition rates, not tumor shrinkage rates.

[2] = test system: human lung tumor xenograft; experiment: Human lung tumor xenograft model; format: in vivo, human tumor in nude mice
From the text: (§3) For the human lung and prostate tumor xenograft models the following procedure was used. Nude mice were implanted s.c. by trocar with fragments of human lung or prostate carcinomas harvested from s.c. growing tumors in nude mice hosts. When tumors were approximately 5 mm×5 mm in size (usually ten to fourteen days after inoculation), the animals were pair-matched into treatment and control groups. Each group contained 10 tumored mice, each of which was ear-tagged and followed individually throughout the experiment. […] The doses, route of drug administration and schedule were selected as appropriate for the study in question. (See above protocol). […] Topotecan was run as a positive control at its MTD dose on a daily×5 and a daily×1 schedule. Male nude mice were used for both prostate studies.
(§4) Mice are weighed twice weekly, and tumor measurements were taken by calipers twice weekly, starting on day 1.
(§5) Some drugs cause tumor shrinkage in the human tumor xenograft models. […] A mean % tumor shrinkage can be calculated from the data from the mice in a group that experienced tumor regressions.

[3] = test system: human prostate tumor xenograft; experiment: Human prostate tumor xenograft model; format: in vivo, human tumor in nude mice
From the text: as §3, §4, §5

[4] = as hydrochloride salt; cited from earlier work
topoisomerase I = conditions: TPT-HCl; Wall et al.; cited from earlier work
P388 murine leukemia = conditions: vs unmodified camptothecin, side by side; cited from earlier work
Lewis lung carcinoma = conditions: vs unmodified camptothecin, side by side; cited from earlier work
B16 murine melanoma = conditions: vs unmodified camptothecin, side by side; cited from earlier work
[5] = human, in vivo; cited from earlier work
carcinoma cells = conditions: in vitro clonogenic assay / tumor cell growth, in words; cited from earlier work
tumor growth = conditions: in words; cited from earlier work

CC[C@@]1(O)C(=O)OCc2c1cc1n(c2=O)Cc2cc3c(CN(C)C)c(O)ccc3nc2-1 [TPT, [(s)-9-dimethylaminomethyl-10-hydroxycamptothecin hydrochloride], reference compound]
60-day survivors (cures) (murine B16 melanoma; 2 mg/kg): one
T/C (mean survival treated/control) (murine B16 melanoma; 2 mg/kg i.p. daily×5): 201%
Tox Deaths (murine B16 melanoma; 2 mg/kg i.p. daily×5): 0/10
ΔWeight (%) (murine B16 melanoma; 2 mg/kg i.p. daily×5): +1.9%
Survivors (murine B16 melanoma; 2 mg/kg i.p. daily×5): 1/10
T/C (mean survival treated/control) (murine B16 melanoma; 2 mg/kg i.p. daily×5, listed as Topotecan): 210%
T/C (mean survival treated/control) (murine B16 melanoma; 4 mg/kg i.p. daily×5): 212%
Tox Deaths (murine B16 melanoma; 4 mg/kg i.p. daily×5): 0/10
ΔWeight (%) (murine B16 melanoma; 4 mg/kg i.p. daily×5): -7.0%
Survivors (murine B16 melanoma; 4 mg/kg i.p. daily×5): 0/10
30-day survivors (murine P388 leukemia; 4 mg/kg daily×5): Three
T/C (mean survival treated/control) (murine P388 leukemia; 4 mg/kg i.p. daily×5): 297%
Tox Deaths (murine P388 leukemia; 4 mg/kg i.p. daily×5): 0/10
ΔWeight (%) (murine P388 leukemia; 4 mg/kg i.p. daily×5): -6.6%
Survivors (murine P388 leukemia; 4 mg/kg i.p. daily×5, 30-day): 3/10
efficacy vs P388 leukemia (murine P388 leukemia; i.p. five day schedule, in words): comparable to that produced by HAR 6
weight loss ([1]; 4 mg/kg): 15%
Tox Deaths ([1]; 4 mg/kg i.p. daily×5): 0/10
ΔWeight (%) ([1]; 4 mg/kg i.p. daily×5): -15.4%
mean tumor shrinkage ([1]; 4 mg/kg i.p. daily×5, all 10 mice, HAR 6 experiment): 94%
Shrinkage (animals) ([1]; 4 mg/kg i.p. daily×5, partial (94%)): 6/10
mice with tumor shrinkage ([1]; 4 mg/kg, HAR 6 experiment): 10
mortality ([1]; 4 mg/kg, HAR 6 experiment): no mortality
complete regressions ([1]; 4 mg/kg, second experiment): one
drug-related deaths ([1]; 4 mg/kg, second experiment): one
mice with tumor growth inhibition ([1]; 4 mg/kg, second experiment): two
partial responders ([1]; 4 mg/kg, second experiment): six
Shrinkage (animals) ([1]; 4 mg/kg, complete (100%) shrinkage): 1/10
tumor growth inhibition ([1]; 4 mg/kg, two mice, second experiment): 94%
SR(%) (Tumor Shrinkage Rate) ([1]; in vivo): 94% and 100%
Deaths ([2]; 4 mg/kg × 5 days): 0/10
Shrink (% Tumor Shrinkage Rate) ([2]; 4 mg/kg × 5 days): 55%
Shrink (number of animals) ([2]; 4 mg/kg × 5 days): 2/10
TGI (% Tumor Growth Inhibition Rate) ([2]; 4 mg/kg × 5 days): 66%
TGI (number of animals) ([2]; 4 mg/kg × 5 days): 8/10
Deaths ([2]; 8 mg single ds): 0/10
Shrink (number of animals) ([2]; 8 mg single ds): 0/10
TGI (number of animals) ([2]; 8 mg single ds): 0/10
efficacy, single dose ([2]; single dose, in words): completely ineffective
Deaths ([3]; 3 mg/kg × 5 days): 0/10
Shrink (number of animals) ([3]; 3 mg/kg × 5 days): 0/10
TGI (% Tumor Growth Inhibition Rate) ([3]; 3 mg/kg × 5 days): 35%
TGI (number of animals) ([3]; 3 mg/kg × 5 days): 10/10
Deaths ([3]; 8 mg single ds): 0/10
Shrink (number of animals) ([3]; 8 mg single ds): 0/10
TGI (number of animals) ([3]; 8 mg single ds): 0/10
efficacy, single dose ([3]; single dose, in words): completely ineffective
water solubility [4]: 1000 µg/mL
IC50 (topoisomerase I): 1100 nM
topoisomerase I IC50 (topoisomerase I): 0.504 µg/mL
in vivo antitumor efficacy (P388 murine leukemia): superior to unmodified camptothecin
in vivo antitumor efficacy (Lewis lung carcinoma): superior to unmodified camptothecin
in vivo antitumor efficacy (B16 murine melanoma): superior to unmodified camptothecin
side effects in human clinical studies [5]: myelosuppression, neutropenia, and thrombocytopenia
anti-tumor effect in vitro (carcinoma cells): significant anti-tumor effects
effectiveness against tumor growth in animal studies (tumor growth): at least as good or better than camptothecin

Source: patent publication US5932709A (University of Michigan, priority 1997, dated 1999)
